# Results: patent publication US20130225529A1, “PHOSPHO-ESTER DERIVATIVES AND USES THEREOF” (priority 2012, published 2013)
# Tests used:
# [1] = type: in vivo, mice; conditions: 55° C. hot plate, 30 min after single i.p. dose; 100 mg/kg, PI-PEG 1,600 mg/kg; control 1.91 ± 0.46
# [2] = Inhalation versus oral delivery of PS; type: in vivo, mice
# U87 cells = experiment: 24-h growth inhibition of U87 glioblastoma cells; type: cell-based; conditions: Homo sapiens, U-87 MG; U87, 24 h
# Procedure: U87 cells were treated with sulindac and ibuprofen as well as with the compounds. U87 is a human primary glioblastoma cell line, formally known as U-87 MG. This cell line has epithelial morphology, and is one of the most frequently used glioblastoma cell lines.
# skin papillomas = experiment: DMBA/TPA-induced skin papillomas in FVB mice; type: in vivo
# From the text: This initiation-promotion protocol leads to papillomas by wk 10, and in a fraction of the mice to SCC by wk 20. […] Criteria similar to those used for human papilloma classification were applied to assess disease progression: hyperplasia→papilloma (Pap 1-3)→microinvasive SCC (M1-3)→invasive SCC. On wk 20, the study was terminated.
# β-catenin signaling = experiment: β-catenin transcriptional activity (TOPflash) in HEK293T cells; type: cell-based; conditions: 5 μM each; control 1.23±0.11
# [3] = Drug levels in papillomas (HPLC); conditions: equal dose of PS orally
# [4] = PK study of topical PSG versus oral PS; conditions: mouse, skin, topical or ocular
smiles,measurement,setting,value
CCOP(=O)(OCC)OCCCCOC(=O)CC1=C(C)/C(=C/c2ccc([S+](C)[O-])cc2)c2ccc(F)cc21 (stereo not drawn) [PS 118],latency values (mean±SD),[1],4.55 ± 1.00 s
same,PS levels in plasma,[2]; inhalation and oral,undetectable
same,level of intact PS in lungs,[2]; inhalational 6.5 mg/kg,> 20 nmol/g
same,"total drug levels in lungs, inhalation vs oral","[2]; mouse, in vivo, po",significantly higher compared to those by oral administration
same,level of intact PS in lungs,[2]; oral 150 mg/kg,< 2 nmol/g
same,IC50,U87 cells,114 µM
same,"papilloma multiplicity, oral administration",skin papillomas; oral,failed to reduce papilloma multiplicity
same,reduction of tumor burden (average tumor volume/mouse),skin papillomas; topical,~90%
same,thickness of the epidermis,skin papillomas; topical,partial effect
same,reduction of tumor number (papillomas/mouse),skin papillomas; topical application,merely stabilized disease progression
same,luciferase/renilla activity,β-catenin signaling,0.76±0.03
same,level of PS in papillomas,[3],0.3 ± 0.2 nmol/g
same,AUC(0-t),[4],684 µM·h
same,Cmax,[4],36.1 µM
same,Tmax,[4],2 h
